Where two headings read alike, the source gives them in different places.
Tests used:
[1] = system: SARS-CoV-2 Wuhan variant; assay type: cell-based
[2] = system: SARS-CoV-2 Beta variant; assay type: cell-based
[3] = system: SARS-CoV-2 Delta variant; assay type: cell-based
[4] = system: SARS-CoV-2 viral particles; assay type: cell-based
[5] = system: SARS-CoV-2 virion-associated aminophospholipids (procoagulant activity); assay type: biochemical
[6] = system: SARS-CoV-2 Wuhan variant in Vero E6 cells; assay type: cell-based
[7] = system: SARS-CoV-2 Wuhan variant in Vero E6/TMPRSS2 cells; assay type: cell-based
[8] = system: SARS-CoV-2 Wuhan variant; assay type: cell-based; remark: listed apart in the source
[9] = system: SARS-CoV-2 Wuhan variant particles (N protein and spike protein)
[10] = system: SARS-CoV-2 Wuhan variant virions
[11] = system: SARS-CoV-2 Wuhan variant; assay: microbe, parasite or virus in culture; assay type: cell-based

Molecule | infection inhibitory activity (cytopathic effect) [1] | concentration at the highest dilution completely inhibiting the cytopathic effect [1] [µM] | highest dilution completely inhibiting the cytopathic effect [1] [fold] | concentration at the highest dilution completely inhibiting the cytopathic effect [2] [µM] | highest dilution completely inhibiting the cytopathic effect [2] [fold] | concentration at the highest dilution completely inhibiting the cytopathic effect [3] [µM] | highest dilution completely inhibiting the cytopathic effect [3] [fold] | infection inhibitory activity (cytopathic effect) [3] | reduction of infectivity by pretreatment of viral particles [4] | effect on clotting time [5] | effect on clotting time ([5]; 10 mM, 37°C) | reduction in TCID50/mL compared with the control [6] | infectivity of treated virus [7] | intracellular SARS-CoV-2 gRNA level (viral entry) [8] | viral entry [8] | band intensities of N protein and spike protein [9] | binding of viral particles to anti-RBD antibody-coated plate (RNA quantification) [10] | selectivity index (SI = CC50/IC50) [11] | IC50 ([11]; Severe acute respiratory syndrome coronavirus 2, VeroE6/TMPRSS2, 72 h, read-out: IC50 against SARS-CoV-2 infection) [µM] | effect on clotting time ([5]; 5 mM)
hydroxypropyl-α-cyclodextrin [HP-α-CyD] | showed infection inhibitory activity | – | – | – | – | – | – | – | – | – | – | – | – | – | – | – | – | – | – | –
COC[C@H]1O[C@@H]2O[C@H]3[C@H](OC(C)=O)[C@@H](OC)[C@@H](O[C@H]4[C@H](OC(C)=O)[C@@H](OC)[C@@H](O[C@H]5[C@H](OC(C)=O)[C@@H](OC)[C@@H](O[C@H]6[C@H](OC(C)=O)[C@@H](OC)[C@@H](O[C@H]7[C@H](OC(C)=O)[C@@H](OC)[C@@H](O[C@H]8[C@H](OC(C)=O)[C@@H](OC)[C@@H](O[C@H]1[C@H](OC(C)=O)[C@H]2OC)O[C@@H]8COC)O[C@@H]7COC)O[C@@H]6COC)O[C@@H]5COC)O[C@@H]4COC)O[C@@H]3COC [DMA-β-CyD] | showed infection inhibitory activity | 156 | 64 | 625 | 16 | 156 | 64 | showed infection inhibitory activity | 2.25–2.67 | insufficient recovery of clotting time | markedly prolonged clotting time | 2.22 | 7.34 × 10^3 TCID50/mL | decreased in a DMA-β-CyD-concentration-dependent manner | inhibited the entry of these particles | marked reduction in the band intensities of both proteins | concentration-dependent decrease in binding | – | – | –
COC[C@H]1O[C@@H]2O[C@H]3[C@H](O)[C@@H](OC)[C@@H](O[C@H]4[C@H](O)[C@@H](OC)[C@@H](O[C@H]5[C@H](O)[C@@H](OC)[C@@H](O[C@H]6[C@H](O)[C@@H](OC)[C@@H](O[C@H]7[C@H](O)[C@@H](OC)[C@@H](O[C@H]8[C@H](O)[C@@H](OC)[C@@H](O[C@H]1[C@H](O)[C@H]2OC)O[C@@H]8COC)O[C@@H]7COC)O[C@@H]6COC)O[C@@H]5COC)O[C@@H]4COC)O[C@@H]3COC [DM-β-CyD, 2,6-di-O-methyl-β-cyclodextrin] | showed infection inhibitory activity | – | – | – | – | – | – | showed infection inhibitory activity | – | – | – | – | – | – | – | – | – | 4.04 | 1420 | no effect on clotting time
